The values that follow come from patent publication US20110195900A1, “PEPTIDIC PTH RECEPTOR AGONISTS” (FERRING B.V., priority 2008, published 2011).

Structures are written as SMILES. Like-named read-outs stand apart in the source and are kept apart here. Non-standard residues stand in square brackets, D forms with d. Residues, ends and D or L forms follow the SMILES beside them. 1Nal = N[C@@H](Cc1cccc2ccccc12)C(=O)O; 2Nal = N[C@@H](Cc1ccc2ccccc2c1)C(=O)O; β3hI = CC[C@H](C)[C@H](N)CC(=O)O; hSer = N[C@@H](CCO)C(=O)O; Nle = CCCC[C@H](N)C(=O)O; Aib = CC(C)(N)C(=O)O; βAla = NCCC(=O)O Bounds are passed on as bounds.

One test addresses T1, human PTH-1 receptor (Homo sapiens, UniProt Q03431).
T1 construct: expressed in transfected cells; host or cells: HEK-293
T1 sequence (Q03431 27-593): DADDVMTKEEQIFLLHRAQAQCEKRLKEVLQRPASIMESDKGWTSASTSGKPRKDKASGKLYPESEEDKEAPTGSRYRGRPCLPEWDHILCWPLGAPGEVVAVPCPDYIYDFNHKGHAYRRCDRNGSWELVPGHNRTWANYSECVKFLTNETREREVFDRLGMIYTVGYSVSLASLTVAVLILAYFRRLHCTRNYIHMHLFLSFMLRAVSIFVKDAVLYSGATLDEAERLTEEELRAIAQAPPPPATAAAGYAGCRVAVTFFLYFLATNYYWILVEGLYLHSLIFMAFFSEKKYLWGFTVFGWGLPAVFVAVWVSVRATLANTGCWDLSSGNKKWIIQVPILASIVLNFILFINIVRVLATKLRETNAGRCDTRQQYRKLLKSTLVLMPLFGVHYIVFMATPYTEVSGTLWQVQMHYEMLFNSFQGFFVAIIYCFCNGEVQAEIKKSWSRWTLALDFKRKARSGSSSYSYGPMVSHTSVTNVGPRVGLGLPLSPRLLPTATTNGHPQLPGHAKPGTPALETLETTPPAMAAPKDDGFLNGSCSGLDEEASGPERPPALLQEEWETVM
Description: Reporter gene assay (CRE-luciferase) for agonist activity in transiently transfected HEK-293 cells. Format: cell-based. Conditions: for hPTHR-2/hPTHR-1: ratio of EC50 values, selectivity for hPTH-1 receptor over hPTH-2 receptor. The essentials:
(§1)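 Selectivity came from luciferase transcriptional reporter assays expressing human PTH-2 receptor. PTH-1 agonism used transiently transfected HEK-293 cells carrying SV40-promoter receptor and cAMP-responsive-element luciferase; 4-5 h compound exposure, lysis, luminescence, non-linear-regression EC50/efficacy; ≥3 independent runs, PTH (1-34) control each.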
(A reporter such as luciferase makes a cellular process visible.)

The target of another test is T2, human PTH-2 receptor (Homo sapiens, UniProt P49190).
T2 construct: expressed in transfected cells
Description: Luciferase-based transcriptional reporter gene assay for selectivity. Format: cell-based. The essentials:
as §1

T2 sequence (P49190 25-550): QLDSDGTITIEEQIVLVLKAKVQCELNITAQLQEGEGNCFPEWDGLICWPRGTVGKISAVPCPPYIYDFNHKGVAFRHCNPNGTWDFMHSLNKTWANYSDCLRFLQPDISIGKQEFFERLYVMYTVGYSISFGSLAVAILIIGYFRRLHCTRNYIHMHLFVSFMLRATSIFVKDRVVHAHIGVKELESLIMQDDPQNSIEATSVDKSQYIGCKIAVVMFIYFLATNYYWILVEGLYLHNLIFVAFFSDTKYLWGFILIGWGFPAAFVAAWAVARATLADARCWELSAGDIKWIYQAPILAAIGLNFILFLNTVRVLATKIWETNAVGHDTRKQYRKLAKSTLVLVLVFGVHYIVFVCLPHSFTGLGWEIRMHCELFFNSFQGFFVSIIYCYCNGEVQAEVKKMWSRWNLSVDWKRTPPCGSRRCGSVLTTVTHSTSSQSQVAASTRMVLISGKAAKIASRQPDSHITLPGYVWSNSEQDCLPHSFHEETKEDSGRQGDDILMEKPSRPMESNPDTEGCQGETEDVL

The EC50 is the concentration at which the effect is half-maximal. `CC[C@H](C)[C@H](NC(=O)[C@H](CCC(=O)O)NC(=O)[C@H](CO)NC(=O)[C@@H](NC(=O)[C@@H](N)CO)C(C)C)C(=O)N[C@@H](CCC(N)=O)C(=O)N[C@@H](CC(C)C)C(=O)N[C@@H](CCOC)C(=O)N[C@@H](Cc1c[nH]cn1)C(=O)N[C@@H](CC(N)=O)C(=O)N[C@@H](CC(C)C)C(=O)NCC(=O)N[C@@H](CCCCN)C(=O)N[C@@H](Cc1c[nH]cn1)C(=O)N[C@@H](CC(C)C)C(=O)N[C@@H](CC(N)=O)C(=O)NCCC(=O)N[C@@H](CCOC)C(=O)N[C@@H](CCC(=O)O)C(=O)N[C@@H](CCCNC(=N)N)C(=O)N[C@H](C(=O)N[C@@H](CCC(=O)O)C(=O)N[C@@H](Cc1cccc2ccccc12)C(=O)N[C@@H](CC(C)C)C(=O)N[C@@H](CCCNC(=N)N)C(=O)N[C@@H](CCCCN)C(=O)N[C@@H](CC(C)C)C(=O)N[C@@H](CC(C)C)C(=O)N[C@@H](CCC(N)=O)C(=O)N[C@@H](CC(=O)O)C(=O)N[C@H](C(=O)N[C@@H](Cc1c[nH]cn1)C(=O)N[C@@H](CC(N)=O)C(=O)N[C@@H](Cc1ccccc1)C(N)=O)C(C)C)C(C)C` [SEQ ID NO: 17, [hSer(OMe)^8,18, β-Ala^17,1-Nal^23, Leu^27] hPTH(1-34)-NH2] (H-SVSEIQL[hSer](Me)HNLGKHLN[βAla][hSer](Me)ERVE[1Nal]LRKLLQDVHNF-NH2): the hPTHR-2/hPTHR-1 at human PTH-1 receptor (Table 3) was above 300. The EC50 at human PTH-2 receptor was above 270 nM.

For `CCCC[C@H](NC(=O)[C@H](CC(C)C)NC(=O)[C@H](CCC(N)=O)NC(=O)[C@@H](NC(=O)[C@H](CCC(=O)O)NC(=O)[C@H](CO)NC(=O)[C@@H](NC(=O)[C@@H](N)CO)C(C)C)[C@@H](C)CC)C(=O)N[C@@H](Cc1c[nH]cn1)C(=O)N[C@@H](CO)C(=O)N[C@@H](CC(C)C)C(=O)NCC(=O)N[C@@H](CCCCN)C(=O)N[C@@H](Cc1c[nH]cn1)C(=O)N[C@@H](CC(C)C)C(=O)N[C@@H](CC(N)=O)C(=O)N[C@@H](CO)C(=O)N[C@H](CC(=O)N[C@@H](CCC(=O)O)C(=O)N[C@@H](CCCNC(=N)N)C(=O)N[C@H](C(=O)N[C@@H](CCC(=O)O)C(=O)N[C@@H](Cc1cccc2ccccc12)C(=O)N[C@@H](CC(C)C)C(=O)N[C@@H](CCCNC(=N)N)C(=O)N[C@@H](CCCCN)C(=O)N[C@@H](CC(C)C)C(=O)N[C@@H](CC(C)C)C(=O)N[C@@H](CCC(N)=O)C(=O)N[C@@H](CC(=O)O)C(=O)N[C@H](C(=O)N[C@@H](Cc1c[nH]cn1)C(=O)N[C@@H](CC(N)=O)C(=O)N[C@@H](Cc1ccccc1)C(N)=O)C(C)C)C(C)C)[C@@H](C)CC` [SEQ ID NO: 23, [Nle^8, Ser^10, β-hIle^18,1-Nal^23, Leu^27] hPTH (1-34)-NH2] (H-SVSEIQL[Nle]HSLGKHLNS[β3hI]ERVE[1Nal]LRKLLQDVHNF-NH2), the figures for the EC50 at human PTH-1 receptor and at human PTH-2 receptor were 0.18 nM and 17 nM, respectively. Also, at human PTH-1 receptor (Table 3), the hPTHR-2/hPTHR-1 turned out to be 95.

In the case of `CCCC[C@H](NC(=O)CCNC(=O)[C@H](CCCCN)NC(=O)[C@H](CC(C)C)NC(=O)[C@H](Cc1c[nH]cn1)NC(=O)[C@H](CCCCN)NC(=O)CNC(=O)[C@H](CC(C)C)NC(=O)[C@H](CO)NC(=O)[C@H](Cc1c[nH]cn1)NC(=O)[C@H](CCCC)NC(=O)[C@H](CC(C)C)NC(=O)[C@H](CCC(N)=O)NC(=O)[C@@H](NC(=O)[C@H](CCC(=O)O)NC(=O)[C@H](CO)NC(=O)[C@@H](NC(=O)C(C)(C)N)C(C)C)[C@@H](C)CC)C(=O)N[C@@H](CCC(=O)O)C(=O)N[C@@H](CCCNC(=N)N)C(=O)N[C@H](C(=O)N[C@@H](CCC(=O)O)C(=O)N[C@@H](Cc1cccc2ccccc12)C(=O)N[C@@H](CC(C)C)C(=O)N[C@@H](CCCNC(=N)N)C(=O)N[C@@H](CCCCN)C(=O)N[C@@H](CC(C)C)C(=O)N[C@@H](CC(C)C)C(=O)N[C@@H](CCC(N)=O)C(=O)N[C@@H](CCCNC(=N)N)C(=O)N[C@H](C(=O)N[C@@H](Cc1c[nH]cn1)C(=O)N[C@@H](CCC(=O)O)C(=O)N[C@@H](CCC(=O)O)C(N)=O)C(C)C)C(C)C` [SEQ ID NO: 6, [Aib^1, Nle^8,18, Ser^10, Lys^16, β-Ala^17,1-Nal^23, Leu^27, Arg^30, Glu^33, Glu^34] hPTH (1-34)-NH2] (H-[Aib]VSEIQL[Nle]HSLGKHLK[βAla][Nle]ERVE[1Nal]LRKLLQRVHEE-NH2; N-terminus assumed), the EC50 worked out at 0.03 nM on human PTH-1 receptor and 7 nM on human PTH-2 receptor. The hPTHR-2/hPTHR-1 at human PTH-1 receptor (Table 3) is 267.

Take `CCCC[C@H](NC(=O)CCNC(=O)[C@H](CC(N)=O)NC(=O)[C@H](CC(C)C)NC(=O)[C@H](Cc1c[nH]cn1)NC(=O)[C@H](CCCCN)NC(=O)CNC(=O)[C@H](CC(C)C)NC(=O)[C@H](CC(N)=O)NC(=O)[C@H](Cc1c[nH]cn1)NC(=O)[C@H](CCCC)NC(=O)[C@H](CC(C)C)NC(=O)[C@H](CCC(N)=O)NC(=O)[C@@H](NC(=O)[C@H](CCC(=O)O)NC(=O)[C@H](CO)NC(=O)[C@@H](NC(=O)C(C)(C)N)C(C)C)[C@@H](C)CC)C(=O)N[C@@H](CCC(=O)O)C(=O)N[C@@H](CCCNC(=N)N)C(=O)N[C@H](C(=O)N[C@@H](CCC(=O)O)C(=O)N[C@@H](Cc1ccc2ccccc2c1)C(=O)N[C@@H](CC(C)C)C(=O)N[C@@H](CCCNC(=N)N)C(=O)N[C@@H](CCCCN)C(=O)N[C@@H](CCCCN)C(=O)N[C@@H](CC(C)C)C(=O)N[C@@H](CCC(N)=O)C(=O)N[C@@H](CC(=O)O)C(=O)N[C@H](C(=O)N[C@@H](Cc1c[nH]cn1)C(=O)N[C@@H](CC(N)=O)C(=O)N[C@@H](Cc1ccccc1)C(N)=O)C(C)C)C(C)C` [SEQ ID NO: 13, [Aib^1, Nle^8,18, β-Ala^17,2-Nal^23] hPTH (1-34)-NH2] (H-[Aib]VSEIQL[Nle]HNLGKHLN[βAla][Nle]ERVE[2Nal]LRKKLQDVHNF-NH2; N-terminus assumed): the concentration giving a half-maximal response (EC50) was found to be 0.22 nM at human PTH-1 receptor (Table 3, HEK-293 cells, CRE-luciferase, 4-5 hours exposure, read-out: hPTHR-1 EC50) and 46 nM at human PTH-2 receptor (Table 3, luciferase reporter gene assay, read-out: hPTHR-2 EC50). Further, at human PTH-1 receptor (Table 3), the hPTHR-2/hPTHR-1 came out at 213.

As for `CCCC[C@H](NC(=O)[C@H](CC(C)C)NC(=O)[C@H](CCC(N)=O)NC(=O)[C@@H](NC(=O)[C@H](CCC(=O)O)NC(=O)[C@H](CO)NC(=O)[C@@H](NC(=O)[C@@H](N)CO)C(C)C)[C@@H](C)CC)C(=O)N[C@@H](Cc1c[nH]cn1)C(=O)N[C@@H](CC(N)=O)C(=O)N[C@@H](CC(C)C)C(=O)NCC(=O)N[C@@H](CCCCN)C(=O)N[C@@H](Cc1c[nH]cn1)C(=O)N[C@@H](CC(C)C)C(=O)N[C@@H](CC(N)=O)C(=O)N[C@@H](CO)C(=O)N[C@H](CC(=O)N[C@@H](CCC(=O)O)C(=O)N[C@@H](CCCNC(=N)N)C(=O)N[C@H](C(=O)N[C@@H](CCC(=O)O)C(=O)N[C@@H](Cc1cccc2ccccc12)C(=O)N[C@@H](CC(C)C)C(=O)N[C@@H](CCCNC(=N)N)C(=O)N[C@@H](CCCCN)C(=O)N[C@@H](CC(C)C)C(=O)N[C@@H](CC(C)C)C(=O)N[C@@H](CCC(N)=O)C(=O)N[C@@H](CC(=O)O)C(=O)N[C@H](C(=O)N[C@@H](Cc1c[nH]cn1)C(=O)N[C@@H](CC(N)=O)C(=O)N[C@@H](CCCCN)C(N)=O)C(C)C)C(C)C)[C@@H](C)CC` [SEQ ID NO: 30, [Nle^8, β-hIle^18,1-Nal^23, Leu^27, Lys^34] hPTH (1-34)-NH2] (H-SVSEIQL[Nle]HNLGKHLNS[β3hI]ERVE[1Nal]LRKLLQDVHNK-NH2; N-terminus assumed), the EC50 came to 0.1 nM on human PTH-1 receptor and 17 nM on human PTH-2 receptor. Also, the hPTHR-2/hPTHR-1 at human PTH-1 receptor (Table 3) came to 173.

In the case of `CCCC[C@H](NC(=O)[C@H](CC(C)C)NC(=O)[C@H](CCC(N)=O)NC(=O)[C@@H](NC(=O)[C@H](CCC(=O)O)NC(=O)[C@H](CO)NC(=O)[C@@H](NC(=O)[C@@H](N)CO)C(C)C)[C@@H](C)CC)C(=O)N[C@@H](Cc1c[nH]cn1)C(=O)N[C@@H](CC(N)=O)C(=O)N[C@@H](CC(C)C)C(=O)NCC(=O)N[C@@H](CCCCN)C(=O)N[C@@H](Cc1c[nH]cn1)C(=O)N[C@@H](CC(C)C)C(=O)N[C@@H](CC(N)=O)C(=O)N[C@@H](CO)C(=O)N[C@H](CC(=O)N[C@@H](CCC(=O)O)C(=O)N[C@@H](CCCNC(=N)N)C(=O)N[C@H](C(=O)N[C@@H](CCC(=O)O)C(=O)N[C@@H](Cc1cccc2ccccc12)C(=O)N[C@@H](CC(C)C)C(=O)N[C@@H](CCCNC(=N)N)C(=O)N[C@@H](CCCCN)C(=O)N[C@@H](CC(C)C)C(=O)N[C@@H](CC(C)C)C(=O)N[C@@H](CCC(N)=O)C(=O)N[C@@H](CC(=O)O)C(=O)N[C@H](C(N)=O)C(C)C)C(C)C)[C@@H](C)CC` [SEQ ID NO: 1, [Nle^8, β-hIle^18,1-Nal^23, Leu^27] hPTH-(1-31)-NH2] (H-SVSEIQL[Nle]HNLGKHLNS[β3hI]ERVE[1Nal]LRKLLQDV-NH2; N-terminus assumed), the EC50 was found to be 0.09 nM at human PTH-1 receptor and 32 nM on human PTH-2 receptor. Moreover, at human PTH-1 receptor (Table 3), the hPTHR-2/hPTHR-1 is 339. Also, the “potency at the hPTH-1 receptor compared to PTH (1-34)” value on human PTH-1 receptor (in words) was “Improved potency”.
